Source: patent US9353116B2, “Methods and compositions for kinase inhibition” (THE REGENTS OF THE UNIVERSITY OF CALIFORNIA, priority 2010, dated 2016)
Like-named read-outs stand apart in the source and are kept apart here.

What was measured:
[1] = biological target: T1, T338C c-Src (Gallus gallus (Chicken), UniProt P00523, T338C); experiment: Gel filtration and kinetic assay, T338C c-Src; format: biochemical; details: 23 μM inhibitor, 25 minutes, then PD10 desalting
Description: Inhibitors (final concentration 23 μM) were incubated with c-Src variants (final concentration 11.5 μM) in kinase reaction buffer (50 mM Tris pH 8, 100 mM NaCl, 1 mM DTT, 5% glycerol, 5% DMSO) for 25 minutes at room temperature. The solutions (2.6 mL total) were then passed over PD10 desalting columns (GE Healthcare) using the kinase reaction buffer for elution. Src concentrations were calculated using the extinction coefficient for c-Src (51.140 mM^−1cm^−1) {Seeliger, 2005 #100}. Kinase assays were performed as described in the experimental section at a final enzyme concentration of 10 nM.

[2] = biological target: c-Src-ES3 (T338C/V323S) (Gallus gallus (Chicken), UniProt P00523, T338C/V323S); experiment: In vitro kinase assay, c-Src-ES3; format: biochemical
Description: (§1) In vitro kinase assays for c-Src variants were performed in 50 mM Tris (pH 8.0), 10 mM MgCl2 and 1 mg/mL BSA. When obtaining kinetic parameters (kcat, Km) kinase and peptide substrate (IYGEFKKK) (SEQ ID NO:51) concentrations were 2 nM and 500 μM, respectively, while ATP concentrations ranged from 2000-0.655 μM. Addition of nonradioactive ATP supplemented with ^32P ATP (3,000 Ci/mmol, NEN) was used to initiate kinase reactions. Time points were selected such that product formation never exceeded 10%. Reactions were quenched by spotting 3 μL quantities onto phosphocellulose sheets (P81, Whatman). Afterwards, the sheets were washed 3×5 minutes in 0.5% phosphoric acid and dried. Radioactivity was measured by phosphorimaging and recorded on a Typhoon fluorescence imager (Molecular Dynamics). Data were plotted as rate (min^−1) versus ATP concentration and fitted to the Michaelis-Menten equation, v=[(kcat)[S]]/(Km+[S]), using Kaleidagraph software (Synergy) to extract kinetic parameters. When obtaining IC50 values for the inhibitors, 2% (v/v) DMSO was included in kinase reactions. In these cases ATP, peptide, and enzyme concentrations were 15 nM, 100 μM and 5 nM, respectively, while inhibitor concentrations ranged from 10,000-0.610 nM. In all cases, a ten-minute preincubation step between the kinase and the inhibitor preceded addition of ATP and a fifteen-minute reaction. The data was fitted to a sigmoidal dose-response curve using Prism 4.0c (GraphPad Software) to obtain IC50 values.

[3] = biological target: T1, T338C c-Src; experiment: In vitro kinase assay, T338C c-Src (c-Src-ES1); format: biochemical
Description: as §1, with “In all cases, a ten-minute preincubation step between the kinase and the inhibitor preceded addition of ATP and a fifteen-minute reaction.” left out

[4] = biological target: WT c-Src (Gallus gallus (Chicken), UniProt P00523); experiment: In vitro kinase assay, WT c-Src; format: biochemical; details: inhibitor preincubated with Src ten minutes prior to addition of ATP; read-out: WT c-Src IC50
Description: as §1

[5] = biological target: v-Src-ES1 (I338C) (Rous sarcoma virus (strain H-19), UniProt P25020, I338C); experiment: Inhibition assay with v-Src-ES1 transformed NIH-3T3 cells; format: cell-based
Description: Curr Biol 8(5):257-266. Cells were grown to 60-90% confluence in DMEM supplemented with fetal bovine serum (10%), penicillin ‘G’ (100 units/ml) and streptomycin sulfate (100 μg/ml) (PenStrep, UCSF Cell Culture Facility) prior to treatment with kinase inhibitors dissolved in DMSO (final DMSO concentration, 0.5%). Following 1 hour of incubation with inhibitors at 37° C., cells were harvested in lysis buffer (50 mM Tris (pH 7.4), 300 mM NaCl, 5 mM EDTA, 1% triton, 0.02% NaN3, 1× complete mini protease inhibitor (Roche), 1 mM PMSF, 1×PHOS-stop (Roche), 0.02 μM microcystin, 2 mM sodium orthovanadate), normalized for concentration and analyzed by Western blot for global phosphotyrosine levels (4G10, Millipore, 1:1000). Levels of β-actin (β-actin Antibody, Cell Signaling, 1:1000) and v-Src (Src 32G6 rabbit mAb, Cell Signaling, 1:1000) were ascertained by Western blot.
I338C (v-Src-ES1, SEQ ID NO:48), I338T (SEQ ID NO:49), I338G (v-Src-AS1, SEQ ID NO:50) and WT v-Src-transformed NIH-3T3 cell lines were generated. Unlike c-Src, v-Src is constitutively active and harbors an isoleucine gatekeeper. The I338T v-Src variant was generated for consistency with the in vitro c-Src studies. For each cell line, global levels of phosphotyrosine were analyzed (FIG. 7). […]

CC(C)n1nc(Cc2cccc(C(=O)CF)c2)c2c(N)ncnc21 [Compound 13, 1-(3-((4-amino-1-isopropyl-1H-pyrazolo[3,4-d]pyrimidin-3-yl)methyl)phenyl)-2-fluoroethanone]
inhibitory activity after gel filtration, T338C c-Src [1]: retained | IC50 ([2]; ES3 = T338C/V323S, read-out: c-Src variant IC50 (nM) ES3): 29 nM | fold improvement in potency with V323S mutation ([2]; c-Src-ES3 relative to c-Src-ES1): 12 fold | time dependence of inhibition of T338C c-Src [3]: time-dependent manner | IC50 ([3]; ES1 = T338C, read-out: c-Src variant IC50 (nM) ES1): 338 nM | fold more potent than the corresponding ketone 14 ([3]; T338C c-Src): > 13 fold | IC50 ([3]; T338C c-Src IC50 (nM), preincubation time 2 min): 1280 nM | IC50 ([3]; T338C c-Src IC50 (nM), preincubation time 20 min): 318 nM | IC50 ([3]; T338C c-Src IC50 (nM), preincubation time 40 min): 136 nM | IC50 ([3]; inhibitor preincubated with Src ten minutes prior to addition of ATP, read-out: T338C c-Src IC50): 338 nM | IC50 [4]: > 5000 nM | inhibition of v-Src-ES1 in cells (global phosphotyrosine levels) [5]: inhibited v-Src-ES1 in a dose-dependent manner
